Like-named read-outs stand apart in the source and are kept apart here.
Legend:
[1] = target: T1, full-length beta-Catenin (Uniprot ID P35222) (Homo sapiens, UniProt P35222); assay: Fluorescence polarization IC50 (beta-catenin / 5FAM-TCF4 10-53 competition); format: binding; conditions: fluorescence polarization; read-out: beta-Catenin FP IC50
T1 construct: 10 nM full-length beta-Catenin (Uniprot ID P35222)
T1 sequence (P35222 1-781): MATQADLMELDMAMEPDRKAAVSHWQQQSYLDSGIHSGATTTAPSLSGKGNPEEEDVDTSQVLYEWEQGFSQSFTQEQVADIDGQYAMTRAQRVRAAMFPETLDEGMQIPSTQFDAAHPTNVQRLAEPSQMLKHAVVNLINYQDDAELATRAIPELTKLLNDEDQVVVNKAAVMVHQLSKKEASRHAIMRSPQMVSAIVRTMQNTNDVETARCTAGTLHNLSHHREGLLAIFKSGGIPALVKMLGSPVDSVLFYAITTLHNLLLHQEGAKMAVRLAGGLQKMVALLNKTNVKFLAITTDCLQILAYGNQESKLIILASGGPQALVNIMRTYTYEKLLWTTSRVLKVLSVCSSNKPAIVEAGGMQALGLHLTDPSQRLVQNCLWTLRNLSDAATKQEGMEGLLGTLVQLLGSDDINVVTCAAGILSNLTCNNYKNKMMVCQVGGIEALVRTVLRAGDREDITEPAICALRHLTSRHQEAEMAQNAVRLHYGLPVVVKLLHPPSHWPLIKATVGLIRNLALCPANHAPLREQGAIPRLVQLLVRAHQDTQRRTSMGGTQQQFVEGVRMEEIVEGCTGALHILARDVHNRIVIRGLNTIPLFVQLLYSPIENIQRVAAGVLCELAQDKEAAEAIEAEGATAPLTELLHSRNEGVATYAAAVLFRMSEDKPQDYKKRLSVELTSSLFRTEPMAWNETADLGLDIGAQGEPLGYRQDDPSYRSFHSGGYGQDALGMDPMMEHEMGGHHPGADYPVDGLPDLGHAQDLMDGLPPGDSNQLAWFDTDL

[2] = target: T2, beta-catenin/TCF4 engagement (Homo sapiens, UniProt P35222); assay: Nano-BRET target engagement assay (B-cat-Halo & TCF4-Luc in HEK293 cells); format: cell-based; conditions: read-out: NanoBRET Abs IC50
T2 construct: expressed in transfected cells; host or cells: HEK293
T2 sequence (P35222 1-781): T1 sequence (P35222 1-781)

CC(=O)N1CCC[C@]12CC=CCCCC1(CCCC=CCCCOC(=O)N3CC[C@@](C(=O)N[C@@H](Cc4ccccc4C(F)(F)F)C(=O)N[C@@H](Cc4csc5cccc(Cl)c45)C(=O)N[C@@H](C)C(N)=O)(C3)NC(=O)[C@H](CC(C)C)NC(=O)[C@H](Cc3ccccc3)NC(=O)[C@H](C)NC(=O)[C@H](CCC(N)=O)NC(=O)[C@H](Cc3cccc(C(=O)O)c3)NC(=O)[C@H](CC(=O)O)NC1=O)NC(=O)[C@H](CC(C)(C)C)NC(=O)[C@H](CC(=O)O)NC2=O (stereo partly drawn) [I-2491, Ac-PL3-Asp-Npg-B5-Asp-3COOHF-Gln-Ala-Phe-Leu-PyrS2-2F3MeF-4C1BztA-Ala-NH2]
IC50 [1]: 49 nM | IC50 ([2]; absolute IC50): 6100 nM

CC(=O)N1CCC[C@]12CC=CCCCC[C@@](C)(C(=O)N[C@@H](CC(=O)O)C(=O)N[C@@H](CC(=O)O)C(=O)N[C@@H](C)C(=O)N[C@@H](C)C(=O)N[C@@H](Cc1ccccc1)C(=O)N[C@@H](CC(C)C)C(=O)NC(C)(C)C(=O)N[C@@H](Cc1ccsc1)C(=O)N[C@@H](Cc1csc3ccccc13)C(=O)N[C@@H](CCC(N)=O)C(N)=O)NC(=O)[C@H](CC(C)(C)C)NC(=O)[C@H](CC(=O)O)NC2=O [I-1978, Ac-PL3-Asp-Npg-S6-Asp-Asp-Ala-Ala-Phe-Leu-Aib-3Thi-BztA-Gln-NH2]
IC50 [1]: 145 nM | IC50 [2]: > 20000 nM

CC(=O)N1CCC[C@]12CC=CCCCC1(CCCC=CCCCOC(=O)N3CC[C@@](C(=O)N[C@@H](Cc4ccccc4Cl)C(=O)N[C@@H](Cc4csc5ccccc45)C(=O)N[C@@H](CCC(N)=O)C(N)=O)(C3)NC(=O)[C@H]([C@@H](C)O)NC(=O)[C@H](Cc3ccccc3)NC(=O)CNC(=O)[C@H](C)NC(=O)[C@H](CN(CC(=O)O)CC(F)(F)F)NC(=O)[C@H](CC(=O)O)NC1=O)NC(=O)[C@H](CC(C)(C)C)NC(=O)[C@H](CC(=O)O)NC2=O (stereo partly drawn) [I-1694, Ac-PL3-Asp-Npg-B5-Asp-TfeGA-Ala-Gly-Phe-Thr-PyrS2-2C1F-BztA-Gln-NH2]
IC50 [1]: 57 nM | IC50 ([2]; absolute IC50): 43600 nM

CC(=O)NCCCC[C@@H]1NC(=O)[C@H](CCC(N)=O)NC(=O)[C@H](CC(=O)O)NC(=O)C2(CCCC=CCCCOC(=O)N3CC[C@@](C(=O)N[C@@H](Cc4ccccc4)C(=O)N[C@@H](Cc4csc5ccccc45)C(=O)N[C@@H](CC(=O)N4CCOCC4)C(N)=O)(C3)NC(=O)[C@H](CC(C)C)NC(=O)[C@H](Cc3ccccc3)NC(=O)[C@H](C)NC1=O)CCCC=CC[C@]1(CCCN1C(C)=O)C(=O)N[C@@H](CC(N)=O)C(=O)N[C@@H](CC1CCCCC1)C(=O)N2 (stereo partly drawn) [I-2522, Ac-PL3-Asn-Cha-B5-Asp-Gln-[Ac]Lys-Ala-Phe-Leu-PyrS2-Phe-BztA-MorphAsn-NH2]
IC50 [1]: 219 nM | IC50 ([2]; absolute IC50): > 20000 nM

CC(=O)N1CCC[C@]12CC=CCCCC1(CCCC=CCCCOC(=O)N3CC[C@@](C(=O)N[C@@H](Cc4ccccc4Cl)C(=O)N[C@@H](Cc4csc5ccccc45)C(=O)N[C@@H](CCO)C(N)=O)(C3)NC(=O)[C@H](CO)NC(=O)[C@H](Cc3ccccc3)NC(=O)[C@H](C)NC(=O)[C@H](C)NC(=O)[C@H](CC(=O)O)NC(=O)[C@H](CC(=O)O)NC1=O)NC(=O)[C@H](CC1CCCCC1)NC(=O)[C@H](CC(=O)O)NC2=O (stereo partly drawn) [I-1137, Ac-PL3-Asp-Cha-B5-Asp-Asp-Ala-Ala-Phe-Ser-PyrS2-2C1F-BztA-Hse-NH2]
IC50 [1]: 8 nM | IC50 ([2]; absolute IC50): 12000 nM

CC(=O)N1CCC[C@]12CC=CCCCC1(CCCC=CCCCOC(=O)N3CC[C@@](C(=O)N[C@@H](Cc4ccsc4)C(=O)N[C@@H](Cc4csc5ccccc45)C(=O)N[C@@H](C)C(N)=O)(C3)NC(=O)[C@H](C(C)C)NC(=O)[C@H](Cc3ccccc3)NC(=O)[C@H](C)NC(=O)[C@H](CCC(=O)N(C)C)NC(=O)[C@H](Cc3cccc(C(=O)O)c3)NC(=O)[C@H](CC(=O)O)NC1=O)NC(=O)[C@H](CC(C)(C)C)NC(=O)[C@H](CC(=O)O)NC2=O (stereo partly drawn) [I-2303, Ac-PL3-Asp-Npg-B5-Asp-3COOHF-[NMe2]GlnR-Ala-Phe-Val-PyrS2-3Thi-BztA-Ala-NH2]
IC50 [1]: 5 nM | IC50 ([2]; absolute IC50): 1200 nM

CC(=O)N1CCC[C@]12CC=CCCCC1(CCCC=CCCCOC(=O)N3CC[C@@](C(=O)N[C@@H](Cc4ccsc4)C(=O)N[C@@H](Cc4csc5ccccc45)C(=O)N[C@@H](CCC(N)=O)C(N)=O)(C3)NC(=O)[C@H](CC(C)C)NC(=O)[C@H](Cc3ccccc3)NC(=O)[C@H](C)NC(=O)[C@H](CCCN3CCC(F)(F)CC3)NC(=O)[C@H](CC(=O)O)NC(=O)[C@H](CC(=O)O)NC1=O)NC(=O)[C@H](CC(C)(C)C)NC(=O)[C@H](CC(=O)O)NC2=O (stereo partly drawn) [I-1482, Ac-PL3-Asp-Npg-B5-Asp-Asp-F2PipNva-Ala-Phe-Leu-PyrS2-3Thi-BztA-Gln-NH2]
IC50 [1]: 7 nM | IC50 ([2]; absolute IC50): 18000 nM

CC(=O)N1CCC[C@]12CC=CCCCC1(CCCC=CCCCOC(=O)N3CC[C@@](C(=O)N[C@@H](Cc4ccsc4)C(=O)N[C@@H](Cc4csc5ccccc45)C(=O)N[C@@H](CCC(N)=O)C(N)=O)(C3)NC(=O)[C@H](CC(N)=O)NC(=O)[C@H](Cc3ccccc3)NC(=O)[C@H](C)NC(=O)[C@H](C)NC(=O)[C@H](CNCC(=O)O)NC(=O)[C@H](CC(=O)O)NC1=O)NC(=O)[C@H](CC(C)(C)C)NC(=O)[C@H](CC(=O)O)NC2=O (stereo partly drawn) [I-1733, Ac-PL3-Asp-Npg-B5-Asp-GA-Ala-Ala-Phe-Asn-PyrS2-3Thi-BztA-Gln-NH2]
IC50 [1]: 15 nM | IC50 ([2]; absolute IC50): > 20000 nM

CC(=O)N1CCC[C@]12CC=CCCCC1(CCCC=CCCCOC(=O)N3CC[C@@](C(=O)N[C@@H](Cc4ccccc4Cl)C(=O)N[C@@H](Cc4csc5ccccc45)C(=O)N[C@@H](Cc4ccccc4)C(N)=O)(C3)NC(=O)[C@H](CC(N)=O)NC(=O)[C@H](Cc3ccccc3)NC(=O)[C@H](C)NC(=O)[C@H](C)NC(=O)[C@H](Cc3cccc(C(=O)O)c3)NC(=O)[C@H](CC(=O)O)NC1=O)NC(=O)[C@H](CC(C)(C)C)NC(=O)[C@H](CC(=O)O)NC2=O (stereo partly drawn) [I-2033, Ac-PL3-Asp-Npg-B5-Asp-3COOHF-Ala-Ala-Phe-Asn-PyrS2-2C1F-BztA-Phe-NH2]
IC50 [1]: 30 nM | IC50 [2]: 9500 nM

CC(=O)N1CCC[C@]12CC=CCCCC1(CCCC=CCCCOC(=O)N3CC[C@@](C(=O)N[C@@H](Cc4ccsc4)C(=O)N[C@@H](Cc4csc5ccccc45)C(=O)N[C@@H](CCC(N)=O)C(N)=O)(C3)NC(=O)[C@H](CC(C)C)NC(=O)[C@H](Cc3ccccc3)NC(=O)[C@H](C)NC(=O)[C@H](C)NC(=O)[C@H](CCN(CC(=O)O)C(=O)c3c(F)c(F)c(F)c(F)c3F)NC(=O)[C@H](CC(=O)O)NC1=O)NC(=O)[C@H](CC(C)(C)C)NC(=O)[C@H](CC(=O)O)NC2=O (stereo partly drawn) [I-2252, Ac-PL3-Asp-Npg-B5-Asp-[PfBz]GAbu-Ala-Ala-Phe-Leu-PyrS2-3Thi-BztA-Gln-NH2]
IC50 [1]: 31 nM | IC50 ([2]; absolute IC50): 17500 nM

CCCC[C@@H]1NC(=O)[C@H](CC(=O)O)NC(=O)[C@]2(CC=CCCCC3(CCCC=CCCCOC(=O)N4CC[C@@](C(=O)N[C@@H](Cc5ccsc5)C(=O)N[C@@H](Cc5csc6ccccc56)C(=O)N[C@@H](CCC(N)=O)C(N)=O)(C4)NC(=O)[C@H](CC(C)C)NC(=O)[C@H](Cc4ccccc4)NC(=O)[C@H](C)NC(=O)[C@H](C)NC(=O)[C@H](CC(=O)O)NC(=O)[C@H](CC(=O)O)NC3=O)NC1=O)CCCN2C(C)=O (stereo partly drawn) [I-1400, Ac-PL3-Asp-nLeu-B5-Asp-Asp-Ala-Ala-Phe-Leu-PyrS2-3Thi-BztA-Gln-NH2]
IC50 [1]: 5 nM | IC50 ([2]; absolute IC50): 20300 nM

CC(=O)N1CCC[C@]12CC=CCCCC1(CCCC=CCCCOC(=O)N3CC[C@@](C(=O)N[C@@H](Cc4ccccc4Cl)C(=O)N[C@@H](Cc4csc5ccccc45)C(=O)N[C@@H](CCC(N)=O)C(N)=O)(C3)NC(=O)[C@H](CC(C)C)NC(=O)[C@H](Cc3ccccc3)NC(=O)[C@H](C)NC(=O)[C@H](CCCCNC(C)C)NC(=O)[C@H](CC(=O)O)NC(=O)[C@H](CC(=O)O)NC1=O)NC(=O)[C@H](CC(C)(C)C)NC(=O)[C@H](CC(=O)O)NC2=O (stereo partly drawn) [I-1275, Ac-PL3-Asp-Npg-B5-Asp-Asp-iPrLys-Ala-Phe-Leu-PyrS2-2C1F-BztA-Gln-NH2]
IC50 [1]: 9 nM | IC50 ([2]; absolute IC50): 27800 nM

CC(=O)N1CCC[C@]12CC=CCCCC1(CCCC=CCCCOC(=O)N3CC[C@@](C(=O)N[C@@H](Cc4ccsc4)C(=O)N[C@@H](Cc4csc5ccccc45)C(=O)N[C@@H](C)C(N)=O)(C3)NC(=O)[C@H](CC(C)C)NC(=O)[C@H](Cc3ccccc3)NC(=O)[C@H](C)NC(=O)[C@H](CCCCN)NC(=O)[C@H](Cc3cccc(C(=O)O)c3)NC(=O)[C@H](CC(=O)O)NC1=O)NC(=O)[C@H](CC(C)(C)C)NC(=O)[C@H](CC(=O)O)NC2=O (stereo partly drawn) [I-1917, Ac-PL3-Asp-Npg-B5-Asp-3COOHF-Lys-Ala-Phe-Leu-PyrS2-3Thi-BztA-Ala-NH2]
IC50 [1]: 13 nM | IC50 [2]: 37700 nM

— patent US20240116985A1, “STAPLED PEPTIDES AND METHODS THEREOF” (priority 2020, published 2024)
